The values below come from US20090326234A1, “(S)-(-)-Amlodipine Camsylate or Hydrate Thereof And Pharmaceutical Composition Comprising Same” (Hanmi Pharm Co., Ltd., priority 2006, published 2009).

For this series the following is noted: for Purity (area %): HPLC; for degradation: after 36 hours exposure to sunlight; for appearance after exposure to sunlight: exposed to sunlight.
Where [1] appears, read: Initial, before exposure to sunlight.

Like-named read-outs stand apart in the source and are kept apart here.

Description: 100 mg each of the above-mentioned 6 salts was respectively placed in 6 test tubes to prepare a total of 36 samples (6 samples per salt), and they were exposed to sunlight for 36 hours. Then, samples of each salt were taken at 6 hour-intervals and stored in a cool and dark place. After 36 hours, each sample was diluted with a 20 mM ammonium acetate buffer solution (pH=5.0)—acetonitrile mixture (1:1, v/v) and analyzed by HPLC under the following conditions: • Column: Symmetry C8 (4.6 mm×100 mm, 3.5 μm, Water, US) • Eluent: 1 l of a solution of 7 g perchloric acid monohydrate and 1.74 g potassium monohydrogen phosphate in purified water, which adjusted to pH 2.8 by the addition of phosphoric acid.

Take `CC1(C)C2CCC1(CS(=O)(=O)O)C(=O)C2.CCOC(=O)C1=C(COCCN)NC(C)=C(C(=O)OC)[C@@H]1c1ccccc1Cl.O` (racemic) [(±)-10-Camsylate hydrate of Ex. 3, S-(−)-amlodipine (±)-10-camsylate hydrate]: the “Purity (area %)” value under setting [1] amounted to 99.8 area %; the “Purity (area %)” value (exposed to sunlight 6 hours) was found to be 99.9 area %; the “Purity (area %)” value (exposed to sunlight 12 hours) stood at 99.8 area %; the “Purity (area %)” value (exposed to sunlight 18 hours) turned out to be 99.7 area %; the “Purity (area %)” value (exposed to sunlight 24 hours) is 99.6 area %; the “Purity (area %)” value (exposed to sunlight 30 hours) came out at 99.4 area %. Further, the “Purity (area %)” value (exposed to sunlight 36 hours) is given as 99.3 area %.

For `CC1(C)[C@@H]2CC[C@@]1(CS(=O)(=O)O)C(=O)C2.CCOC(=O)C1=C(COCCN)NC(C)=C(C(=O)OC)[C@@H]1c1ccccc1Cl` [(1S)-(+)-10-Camsylate anhydride of Ex. 2, S-(−)-amlodipine (1S)-(+)-10-camsylate anhydride], the “Purity (area %)” value was determined as 99.9 area % under setting [1]; 99.9 area % (exposed to sunlight 6 hours); 99.9 area % (exposed to sunlight 12 hours); 99.9 area % (exposed to sunlight 18 hours); 99.8 area % (exposed to sunlight 24 hours); 99.7 area % (exposed to sunlight 30 hours). For the same molecule, the “Purity (area %)” value (exposed to sunlight 36 hours) came to 99.7 area %.

In the case of `CC1(C)[C@@H]2CC[C@@]1(CS(=O)(=O)O)C(=O)C2.CCOC(=O)C1=C(COCCN)NC(C)=C(C(=O)OC)[C@@H]1c1ccccc1Cl.O` [(1S)-(+)-10-Camsylate hydrate of Ex. 1, S-(−)-amlodipine (1S)-(+)-10-camsylate hydrate], the “Purity (area %)” value by setting is: under setting [1], 99.9 area %; (exposed to sunlight 6 hours) 99.9 area %; (exposed to sunlight 12 hours) 99.9 area %; (exposed to sunlight 18 hours) 99.8 area %; (exposed to sunlight 24 hours) 99.8 area %; (exposed to sunlight 30 hours) 99.7 area %. For the same molecule, the “Purity (area %)” value (exposed to sunlight 36 hours) is listed as 99.7 area %.

Turning to `CC1(C)[C@H]2CC[C@]1(CS(=O)(=O)O)C(=O)C2.CCOC(=O)C1=C(COCCN)NC(C)=C(C(=O)OC)[C@@H]1c1ccccc1Cl` [(R)-Camsylate of Ref. Ex. 1, S-(−)-amlodipine (R)-camsylate], the degradation result was “about 5%”; the “appearance after exposure to sunlight” value was “color change of their surface from off-white to brown, and they becomes partially melted”. The “Purity (area %)” value under setting [1] amounted to 99.8 area %. Further, the “Purity (area %)” value (exposed to sunlight 6 hours) is reported as 99.9 area %. Moreover, the “Purity (area %)” value (exposed to sunlight 12 hours) was determined as 99.7 area %. The “Purity (area %)” value (exposed to sunlight 18 hours) is given as 99.0 area %. In addition, the “Purity (area %)” value (exposed to sunlight 24 hours) amounted to 98.1 area %. Also, under “exposed to sunlight 30 hours”, the “Purity (area %)” value was determined as 96.2 area %. Besides, for the setting “exposed to sunlight 36 hours”, the “Purity (area %)” value is given as 94.8 area %.

Regarding `CCOC(=O)C1=C(COCCN)NC(C)=C(C(=O)OC)[C@@H]1c1ccccc1Cl.O=S(=O)(O)c1ccccc1` [Besylate, (S)-(−)-amlodipine besylate], the degradation result is on record as “about 7%”; the “appearance after exposure to sunlight” value is “color change of their surface from off-white to brown, and they becomes partially melted”. Also, the “Purity (area %)” value under setting [1] is 99.8 area %. Moreover, the “Purity (area %)” value (exposed to sunlight 6 hours) was found to be 99.9 area %. Further, the “Purity (area %)” value (exposed to sunlight 12 hours) is 99.4 area %. Moreover, the “Purity (area %)” value (exposed to sunlight 18 hours) is on record as 98.5 area %. The “Purity (area %)” value (exposed to sunlight 24 hours) is given as 96.4 area %. Where the note is “exposed to sunlight 30 hours”, the “Purity (area %)” value worked out at 94.4 area %. For the setting “exposed to sunlight 36 hours”, the “Purity (area %)” value was determined as 93.4 area %.

`CCOC(=O)C1=C(COCCN)NC(C)=C(C(=O)OC)C1c1ccccc1Cl` (stereo not drawn) [Nicotinate dehydrate, (s)-(−)-amlodipine nicotinate dihyrate]: the degradation is on record as ~2%. Besides, under setting [1], the “Purity (area %)” value is 99.8 area %. Also, for the setting “exposed to sunlight 6 hours”, the “Purity (area %)” value amounted to 99.6 area %. Further, the “Purity (area %)” value (exposed to sunlight 12 hours) is on record as 99.0 area %. The “Purity (area %)” value (exposed to sunlight 18 hours) turned out to be 98.3 area %. In addition, the “Purity (area %)” value (exposed to sunlight 24 hours) was 98.3 area %. In addition, the “Purity (area %)” value (exposed to sunlight 30 hours) turned out to be 98.2 area %. Besides, where the note is “exposed to sunlight 36 hours”, the “Purity (area %)” value was determined as 97.9 area %.
